Measured values: EP1916248A1, “Furanone derivatives as cysteine protease inhibitors” (MEDIVIR AB, priority 2006, dated 2008)
pKi: −log10 of the molar value.

Tests used:
[1] = reference compounds (markers) of the permeability assay; cited from earlier work
[2] = Permeability, transport through Caco-2 cell monolayers; details: human
cathepsin K = target: T1, cathepsin K (Homo sapiens, UniProt P43235); assay: Determination of cathepsin K proteolytic catalytic activity (Ki, fluorogenic peptide substrate); assay type: biochemical; details: human recombinant enzyme
T1 construct: made in house; host or cells: not fixed: E coli, Pichia or Baculovirus systems named as options
T1 sequence (P43235 115-329): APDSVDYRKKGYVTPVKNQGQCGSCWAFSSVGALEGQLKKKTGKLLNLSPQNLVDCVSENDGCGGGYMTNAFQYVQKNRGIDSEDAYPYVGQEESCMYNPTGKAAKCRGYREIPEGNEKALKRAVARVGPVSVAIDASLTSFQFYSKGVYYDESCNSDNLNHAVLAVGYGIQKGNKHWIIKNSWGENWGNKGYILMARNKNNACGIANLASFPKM
Protocol: Convenient assays for cathepsin K are carried out using human recombinant enzyme, such as that described in PDB.
The recombinant cathepsin K can be expressed in a variety of commercially available expression systems including E coli, Pichia and Baculovirus systems. The purified enzyme is activated by removal of the prosequence by conventional methods.
The enzyme concentration used was 5 nM. The stock substrate solution was prepared at 10 mM in DMSO. […] The total DMSO concentration in the assay was kept below 3%. All assays were conducted at ambient temperature. Product fluorescence (excitation at 390 nm, emission at 460 nm) was monitored with a Labsystems Fluoroskan Ascent fluorescent plate reader.
Potential inhibitors are screened using the above assay with variable concentrations of test compound. Reactions were initiated by addition of enzyme to buffered solutions of substrate and inhibitor.

human cathepsin L = human cathepsin L (Homo sapiens, UniProt P07711); assay: Cathepsin L Ki determination (fluorescent substrate H-D-Val-Leu-Lys-AMC); assay type: biochemical; details: pH5.5
Protocol: The procedure above with the following amendments is used for the determination of Ki for cathepsin L.
The enzyme is commercially available human cathepsin L (for example Calbiochem). The substrate is H-D-Val-Leu-Lys-AMC available from Bachem. The assay buffer is 100 mM sodium acetate 1 mM EDTA, pH5.5) The DMSO stock (10 mM in 100%DMSO) is diluted to 10% in assay buffer. Enzyme is prepared at 5 nM concentration in assay buffer plus 1 mM dithiothreitol just before use. 2 ul of 10 mM inhibitor made up in 100% DMSO is dispensed into row A. 10 ul of 50 uM substrate (=1/200 dilution of 10 mM stock in DMSO, diluted in assay buffer)
Potential inhibitors are screened using the above assay with variable concentrations of test compound. Reactions were initiated by addition of enzyme to buffered solutions of substrate and inhibitor. Ki values were calculated according to equation 1 v0 = (VS)/(KM (1 + (I)/(Ki)) + S) [formula] where v0 is the velocity of the reaction, V is the maximal velocity, S is the concentration of substrate with Michaelis constant of KM, and / is the concentration of inhibitor.
Representative compounds of the invention were assayed for cathepsin K potency and selectivity in the assays above. Note that the cathepsin L and S data is in micromolar, whereas the compounds are so potent against cathepsin K that the results are presented in nanomolar.

human cathepsin S = target: T2, human cathepsin S (Homo sapiens, UniProt P25774); assay: Cathepsin S Ki determination (fluorescent substrate boc-Val-Leu-Lys-AMC); assay type: biochemical; details: baculovirus-expressed human cathepsin S, pH 6.5
T2 construct: made in house
Protocol: The assay uses baculovirus-expressed human cathepsin S and the boc-Val-Leu-Lys-AMC fluorescent substrate available from Bachem in a 384 well plate format, in which 7 test compounds can be tested in parallel with a positive control comprising a known cathepsin S inhibitor comparator.
280 ul/well of 12.5% DMSO are added to rows B - H of two columns of a 96 deep well polypropylene plate. 70 ul/well of substrate is added to row A. 2 x 250 ul/well of assay buffer (100 mM Na phosphate, 100 mM NaCl, pH 6.5) is added to row A, mixed, and double diluted down the plate to row H.
100 ul/well of assay buffer is added to columns 2-5 and 7-12 of 4 rows of a 96 well V bottom polypropylene plate. 200 ul/well of assay buffer is added to columns 1 and 6.
2 ul of each 10 mM test compound is added to a separate well on row A, columns 1-10. Add 90 ul assay buffer containing 1 mM DTT and 2 nM cathepsin S to each well of rows B-H and 180 ul to row A. Mix row A using a multichannel pipette and double dilute to row G. Mix row H and read in the fluorescent spectrophotometer.
The second test compound is added to column 6 of the top row, the third to column 1 of the second row etc. Add 1 ul of comparator to column 6 of the bottom row. […]
Using the a distributor such as a Multidrop 384, add 30 ul/well to all wells of the assay plate and read in fluorescent spectrophotometer such as an Ascent. […]

Sequence of human cathepsin L (P07711 114-333): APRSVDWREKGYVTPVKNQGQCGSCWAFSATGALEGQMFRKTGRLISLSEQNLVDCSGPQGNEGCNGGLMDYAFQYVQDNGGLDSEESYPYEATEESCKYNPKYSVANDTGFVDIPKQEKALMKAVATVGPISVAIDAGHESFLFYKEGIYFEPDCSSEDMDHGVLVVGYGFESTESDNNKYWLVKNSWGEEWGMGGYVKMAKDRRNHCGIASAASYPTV
T2 sequence (P25774 115-331): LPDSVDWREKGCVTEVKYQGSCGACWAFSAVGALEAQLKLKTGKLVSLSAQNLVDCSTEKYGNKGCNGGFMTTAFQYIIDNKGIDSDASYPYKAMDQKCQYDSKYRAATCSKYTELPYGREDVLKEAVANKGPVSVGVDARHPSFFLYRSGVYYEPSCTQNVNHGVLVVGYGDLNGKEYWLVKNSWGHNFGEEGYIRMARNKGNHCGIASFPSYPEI

SMILES | % absorption in man [1] [%] | Papp at 120 min, 10 uM [2] [×10⁻⁶ cm/s] | pKi (human cathepsin L) | pKi (human cathepsin S) | further results
CN(Cc1cnc2nc(N)nc(N)c2n1)c1ccc(C(=O)N[C@@H](CCC(=O)O)C(=O)O)cc1 [Methotrexate] | 20 | – | – | – | –
CCC1OCC(=O)C1NC(=O)C(CC(C)C)NC(=O)c1ccc(-c2csc(N3CCN(C)CC3)n2)cc1 (stereo not shown) [Example 3, N-[1-(2-Ethyl-4-oxo-tetrahydro-furan-3-ylcarbamoyl)-3-methyl-butyl]-4-[2-(4-methylpiperazin-1-yl)-thiazol-4-yl]-benzamide] | – | 46 | 6.30 | 5.74 | pKi (cathepsin K): 9.00
CCC1OCC(=O)C1NC(=O)C1(NC(=O)c2ccc(-c3csc(N4CCN(C)CC4)n3)cc2)CCCCC1 (stereo not shown) [Example 2, N-[1-(2-Ethyl-4-oxo-tetrahydro-furan-3-ylcarbamoyl)-cyclohexyl]-4-[2-(4-methylpiperazin-1-yl)-thiazol-4-yl]-benzamide] | – | 36 | 3.92 | 3.11 | –
CC(C)C[C@H](NC(=O)c1ccc(N2CCN(C)CC2)cc1)C(=O)N[C@H]1C(=O)CO[C@@H]1C [Prior art, reference compound] | – | – | – | – | Papp at 10 µM [2]: 1 ×10⁻⁶ cm/s
OC[C@@H](O)[C@@H](O)[C@H](O)[C@H](O)CO [Mannitol] | 16 | – | – | – | –
